Reference: patent US20130289019A1, “METHODS OF TREATING BEHAVIORIAL AND/OR MENTAL DISORDERS” (AMAZING GRACE, INC., priority 2012, published 2013)

Test system: rats (NAc infusion)
Assay: swim test scores during bilateral fluoxetine infusion in the NAc
Type: in vivo, rat

For CNCCC(Oc1ccc(C(F)(F)F)cc1)c1ccccc1 (centres unmarked) [Fluoxetine], the “Swimming + Climbing (total escape attempts), FLU” value (“Swimming + Climbing” below) (0.2 mM bilateral in NAc, fluoxetine on Day 2 (Ringer Day 3)) was 54 ± 30, the “Swimming + Climbing” value (0.2 mM bilateral in NAc, fluoxetine on Day 3 (Ringer Day 2)) was 74 ± 13 and the “Swimming + Climbing” value (0.2 mM bilateral in NAc, on Day 2 or Day 3 (combined)) was 66 ± 12. The “Swimming + Climbing” value (0.5 mM bilateral in NAc, fluoxetine on Day 2 (Ringer Day 3)) was 51 ± 9, the “Swimming + Climbing” value (0.5 mM bilateral in NAc, fluoxetine on Day 3 (Ringer Day 2)) was 81 ± 9 and the “Swimming + Climbing” value (0.75 mM bilateral in NAc, fluoxetine on Day 2 (Ringer Day 3)) was 58 ± 11. For the same compound, the “Swimming + Climbing” value (0.75 mM bilateral in NAc, fluoxetine on Day 3 (Ringer Day 2)) was 73 ± 11 and the “Swimming + Climbing” value (0.75 mM bilateral in NAc, on Day 2 or Day 3 (combined)) was 67 ± 7.
